# Source: patent US20220056014A1, “PHENYLPYRROLIDINE COMPOUND AND USE THEREOF” (WUHAN HUMANWELL INNOVATIVE DRUG RESEARCH AND DEVELOPMENT …, priority 2018, published 2022)
# Like-named read-outs stand apart in the source and are kept apart here.
# Assays:
# PDE4D = target: T1, PDE4D (Homo sapiens, UniProt Q08499); assay: PDE4D enzyme activity assay (PDE-Glo Phosphodiesterase Assay Kit); assay type: biochemical
# T1 construct: purchased Enzo Life Sciences BML-SE523-0020
# Outline: (§1)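 Recombinant human PDE4B (1 ng/μl working solution) or PDE4D (4 ng/μl working solution) preincubated 5 min at RT with compound, then reacted 20 min with cAMP (2 μM in added solution). PDE-Glo termination/detection and Kinase-Glo steps followed; luminescence read and IC50 fitted.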
# [1] = test system: LPS-stimulated TNF-α release; assay: LPS-stimulated TNF-α release in mice; assay type: in vivo, Balb/c mice; conditions: Mus musculus, oral 50 mg/kg (positive control 100 mg/kg), 1 mg/kg LPS i.p.
# Procedure: 18 Balb/c mice (6 to 8 weeks) were randomly assigned to a blank group, a model group, and an administration group, 6 mice in each group. A vehicle (blank group, model group) or 50 mg/kg compound (administration group, where the dose for the positive control group was 100 mg/kg) was orally administrated. 30 min after the oral administration, PBS (blank group) or 1 mg/kg LPS (model group and administration group) was injected intraperitoneally. 90 min or 120 min after the intraperitoneal injection, blood was collected from the hearts of the mice, and still stood at 2-8° C. for 4 hours, and centrifuged at 5000 rpm for 10 min to collect the serum. The serum was stored at −80° C. for testing.
# The serum TNF-α level was tested using a mouse TNF-α detection kit (Mouse TNFa ELISA kit: Biolegend, Cat: 430904). The inhibitory activity of the compounds against the TNF-α release was calculated based on the serum TNF-α level.
# Inhibitory activity of compound %={1−(TNFα concentration of administration group−TNFα concentration of blank group)/(TNFα concentration of model group−TNFα concentration of blank group)}×100%.
# PDE4B = target: T2, PDE4B (Homo sapiens, UniProt Q07343); assay: PDE4B enzyme activity assay (PDE-Glo Phosphodiesterase Assay Kit); assay type: biochemical
# T2 construct: purchased Enzo Life Sciences BML-SE522-0020
# T2 sequence (Q07343 whole entry): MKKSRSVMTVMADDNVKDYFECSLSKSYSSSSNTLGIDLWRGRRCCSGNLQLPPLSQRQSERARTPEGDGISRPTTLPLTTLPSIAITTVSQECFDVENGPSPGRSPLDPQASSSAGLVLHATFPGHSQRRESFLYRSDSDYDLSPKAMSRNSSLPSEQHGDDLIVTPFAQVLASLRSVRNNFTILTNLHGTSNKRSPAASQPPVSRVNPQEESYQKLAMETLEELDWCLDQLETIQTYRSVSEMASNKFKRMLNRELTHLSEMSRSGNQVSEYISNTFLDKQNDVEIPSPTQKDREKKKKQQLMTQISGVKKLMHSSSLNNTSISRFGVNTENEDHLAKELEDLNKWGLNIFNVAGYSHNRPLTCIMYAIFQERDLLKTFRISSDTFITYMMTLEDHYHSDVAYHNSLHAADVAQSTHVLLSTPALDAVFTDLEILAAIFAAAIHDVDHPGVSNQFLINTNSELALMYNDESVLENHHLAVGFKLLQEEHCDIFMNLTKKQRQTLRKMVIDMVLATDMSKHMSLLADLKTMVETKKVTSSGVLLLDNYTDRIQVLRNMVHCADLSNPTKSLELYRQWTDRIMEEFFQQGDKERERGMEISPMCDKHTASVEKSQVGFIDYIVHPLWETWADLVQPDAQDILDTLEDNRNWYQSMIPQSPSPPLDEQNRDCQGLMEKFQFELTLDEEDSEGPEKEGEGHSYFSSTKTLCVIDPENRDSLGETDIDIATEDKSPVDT
# Outline: as §1
# [2] = test system: LPS-induced secretion of TNFα in human PBMCs; assay: LPS-induced secretion of TNFα in human PBMCs; assay type: cell-based; conditions: Homo sapiens, PBMC, 24 h, LPS 10 ng/ml
# Outline: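 PBMCs isolated by Lymphoprep density centrifugation were seeded at 5×10^4/well in RPMI1640 + 10% FBS and given compound, with 30 min pre-incubation, then stimulated with 10 ng/ml LPS (final). After 24 h, supernatant TNF-α was measured by ELISA kit.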
# [3] = test system: Mouse CIA arthritis model; assay: Mouse CIA arthritis model test; assay type: in vivo, DBA/1 mice; conditions: 30 mg/kg oral, twice a day for 21 days
# Procedure: (1) Preparation of Type II Collagen/Complete Freund's Adjuvant
# Preparation of acetic acid: 2N acetic acid was diluted to 100 mM, filtered with 0.22 μm filter membrane, and stored at 4° C.
# Preparation of bovine type II collagen solution: bovine type II collagen (CII) was dissolved in 100 mM acetic acid solution and stored at 4° C. overnight. A final concentration of collagen was 8 mg/mL.
# Preparation of emulsion: the CII solution stored overnight was mixed with an equal volume of complete Freund's adjuvant, and homogenized on ice by a high-speed homogenizer at 30,000 rpm for approximately 60 min, until the solution formed a stable emulsion.
# After DBA/1 mice were anesthetized with isoflurane, 50 μl of prepared collagen emulsion (containing 200 micrograms of CII) was injected subcutaneously in the tail (2-3 cm from the base of the tail) for immunization. The day of the primary immunization was recorded as day 0, and the following days were recorded sequentially. On day 21, the same volume of collagen emulsion was injected into the tail in the same way. Mice in the normal group were not immunized.
# On day 21, the mice that had been induced to have arthritis were randomly grouped according to their body weights, such that the average body weight of each group was consistent, and they were randomly divided into 6 treatment groups for administration, with 10 mice in each group.
# G1 group included normal mice without being treated; G2 group was given a blank vehicle; G3 to G7 groups were administrated with the compound at a dose of 30 mg/kg, twice a day for 21 days. The volume of oral administration was 10 mL/kg.
# After the enhanced immunization, the disease incidence of the mice was observed every day. When the mice began to develop symptoms (clinical symptoms of arthritis emerged), the symptoms were graded as 0 to 4 according to the different degrees of pathological changes (redness, joint deformation), where the highest score for each limb was 4, and the highest score for each animal was 16. The mice were graded at least three times a week.
# The area under curve (AUC) of clinical scores of each group from day 21 to day 42 was calculated, and the inhibition rate % of the clinical score AUC of the administration group was calculated:
# Inhibition rate %=1−(administration group AUC/blank vehicle group AUC)*100%
# The experimental data are expressed as Mean±standard error (Mean±SEM), and the clinical scores were analyzed with One-way ANOVA, where p<0.05 was considered to be a significant difference.
# T1 sequence (Q08499 whole entry): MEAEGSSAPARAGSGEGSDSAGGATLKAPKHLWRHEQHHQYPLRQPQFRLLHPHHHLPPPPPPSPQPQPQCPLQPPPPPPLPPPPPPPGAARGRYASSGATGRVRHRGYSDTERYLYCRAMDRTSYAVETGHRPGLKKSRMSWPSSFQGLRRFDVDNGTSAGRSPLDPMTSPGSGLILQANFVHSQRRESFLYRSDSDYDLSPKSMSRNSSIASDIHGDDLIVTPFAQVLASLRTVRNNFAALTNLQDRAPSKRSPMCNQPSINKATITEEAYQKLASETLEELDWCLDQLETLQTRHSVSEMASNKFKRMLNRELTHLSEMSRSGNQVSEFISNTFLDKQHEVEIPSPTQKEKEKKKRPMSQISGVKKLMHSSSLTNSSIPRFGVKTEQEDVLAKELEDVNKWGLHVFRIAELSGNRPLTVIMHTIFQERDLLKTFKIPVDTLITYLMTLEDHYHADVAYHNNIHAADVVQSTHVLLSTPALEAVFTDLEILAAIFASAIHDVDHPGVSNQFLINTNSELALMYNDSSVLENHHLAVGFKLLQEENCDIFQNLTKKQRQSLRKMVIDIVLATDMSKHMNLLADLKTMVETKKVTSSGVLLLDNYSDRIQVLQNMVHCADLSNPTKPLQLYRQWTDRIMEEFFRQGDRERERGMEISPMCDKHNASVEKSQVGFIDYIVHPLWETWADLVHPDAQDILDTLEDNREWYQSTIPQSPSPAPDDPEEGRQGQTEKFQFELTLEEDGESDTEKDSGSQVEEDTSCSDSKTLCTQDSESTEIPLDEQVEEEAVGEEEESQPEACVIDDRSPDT
structure (smiles),measurement,setting,value
"CCc1ccc(N2CC(Oc3cc([C@@H]4CN(C(=O)[C@@H](O)CO)C[C@@]4(C)[C@@H](C)O)ccc3OC)C2)nc1 [Compound 031, (S)-1-((3S,4S)-4-(3-((1-(5-ethylpyridin-2-yl)azetidin-3-yl)oxy)-4-methoxyphenyl)-3-((R)-1-hydroxyethyl)-3-methylpyrrolidin-1-yl)-2,3-dihydroxypropan-1-one]",IC50,PDE4D,2.56 nM
same,inhibition in vivo at 50 mg/kg,"[1]; 1.5 h, blood 90 min after LPS, read-out: Inhibition rate (%) of LPS-stimulated TNF-α release, 90 min",64.8%
same,inhibition in vivo at 50 mg/kg,"[1]; 2 h, blood 120 min after LPS, read-out: Inhibition rate (%) of LPS-stimulated TNF-α release, 120 min",78.3%
same,IC50,PDE4B,1.87 nM
same,IC50 (PDE4D)/IC50 (PDE4B),PDE4B; selectivity ratio,1.37
same,IC50,[2],0.7 nM
same,inhibition rate based on clinical score AUC,[3]; AUC day 21 to day 42,85.0%
same,Clinical score (endpoint),"[3]; day 42, highest score 16",2.1
